Assay results reported in PubChem BioAssay AID264 (DTP/NCI, 2004).
“And” between values parts separate entries of the source, which are not always exact repeats. Identical values can stand only once. Inconclusive results are not listed.

Tested on: nude mice, LX-1 lung xenograft intrarenal, tumor weight T/C
Experiment: NCI In Vivo Anticancer Drug Screen. Data for tumor model Human Lung LX-1 Xenograft (intrarenal inoculation) in NU/NU Swiss (nude) mice
Details: endpoint: mean tumor weight change, higher = larger tumour
Summary of the method: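 In vivo, transplantable tumor; compound vs vehicle arms; tumor size measured; value = T/C.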

[1] = dose: 100.0 mg/kg/injection, schedule: Q04DX003 (sc), vehicle: saline with Tween-80
[2] = dose: 200.0 mg/kg/injection, schedule: Q04DX003 (sc), vehicle: saline with Tween-80
[3] = dose: 300.0 mg/kg/injection, schedule: Q04DX003 (sc), vehicle: Klucel (hydroxypropylcellulose) (HPC)
[4] = dose: 1200.0 mg/kg/injection, schedule: Q04DX003 (sc), vehicle: Klucel (hydroxypropylcellulose) (HPC)
[5] = dose: 600.0 mg/kg/injection, schedule: Q04DX003 (sc), vehicle: Klucel (hydroxypropylcellulose) (HPC)
[6] = dose: 2400.0 mg/kg/injection, schedule: Q04DX003 (sc), vehicle: Klucel (hydroxypropylcellulose) (HPC)
[7] = dose: 100.0 mg/kg/injection, schedule: Q01DX010 (sc), vehicle: Klucel (hydroxypropylcellulose) (HPC)
[8] = dose: 400.0 mg/kg/injection, schedule: Q04DX003 (sc), vehicle: saline with Tween-80

CC(=O)OCC1OC(n2cc(CBr)nn2)C(OC(C)=O)C(OC(C)=O)C1OC(C)=O (stereo unspecified)
T/C (dose: 50.0 mg/kg/injection, schedule: Q01DX010 (sc), vehicle: saline with Tween-80): 177 % of control | T/C (dose: 100.0 mg/kg/injection, schedule: Q01DX010 (sc), vehicle: saline with Tween-80): 101 % of control | T/C (dose: 400.0 mg/kg/injection, schedule: Q01DX010 (sc), vehicle: saline with Tween-80): 46 % of control

COc1cc([C@@H]2c3cc4c(cc3[C@@H](OC3OC5CO[C@@H](c6cccs6)OC5C(O)C3O)[C@H]3COC(=O)[C@H]23)OCO4)cc(OC)c1O (stereo partly specified)
T/C (dose: 1.0 mg/kg/injection, schedule: Q01DX010 (sc), vehicle: saline): 54 % of control | T/C (dose: 2.0 mg/kg/injection, schedule: Q01DX010 (sc), vehicle: saline): 78 % of control | T/C (dose: 4.0 mg/kg/injection, schedule: Q01DX010 (sc), vehicle: saline): 62 % of control and 78 % of control | T/C (dose: 8.0 mg/kg/injection, schedule: Q01DX010 (sc), vehicle: saline): 62 % of control and 78 % of control | T/C (dose: 16.0 mg/kg/injection, schedule: Q01DX010 (sc), vehicle: saline): 89 % of control | T/C (dose: 32.0 mg/kg/injection, schedule: Q01DX010 (sc), vehicle: saline): 39 % of control | T/C (dose: 33.0 mg/kg/injection, schedule: Q01DX010 (sc), vehicle: saline): 109 % of control | T/C (dose: 132.0 mg/kg/injection, schedule: Q01DX010 (sc), vehicle: saline): 56 % of control | T/C (dose: 264.0 mg/kg/injection, schedule: Q01DX010 (sc), vehicle: saline): 88 % of control

O=C(O[Si](Cc1ccccc1)(Cc1ccccc1)Cc1ccccc1)N(CCCl)CCCl
T/C [1]: 53 % of control | T/C [2]: 120 % of control

Oc1c(Cl)cc(Cl)cc1C1N2CCCCC2C2c3cccn3-c3ccccc3N21 (stereo unspecified)
T/C (dose: 150.0 mg/kg/injection, schedule: Q04DX003 (sc), vehicle: Klucel (hydroxypropylcellulose) (HPC)): 65 % of control | T/C [3]: 69 % of control | T/C [4]: 74 % of control

COc1cccc2c1C(=O)c1c(O)c3c(c(O)c1C2=O)C[C@@](O)(C(C)=O)C[C@@H]3OC1CC(N(Cc2ccccc2)Cc2ccccc2)C(O)C(C)O1 (stereo partly specified)
T/C (dose: 25.0 mg/kg/injection, schedule: Q01DX010 (sc), vehicle: water): 64 % of control

OCC1OC(n2cnc3c(NO)ncnc32)C(O)C1O (stereo unspecified)
T/C [3]: 105 % of control | T/C [5]: 102 % of control | T/C [4]: 86 % of control | T/C [6]: 68 % of control

CCc1c(CC(=O)O)c2cc(C)ccc2n1Cc1ccc(Cl)cc1
T/C [3]: 123 % of control | T/C [5]: 82 % of control | T/C [4]: 92 % of control | T/C [6]: 50 % of control

Cn1cc(C2NC(=O)c3ccccc3N2)c2ccccc21 (stereo unspecified)
T/C [3]: 31 % of control | T/C [5]: 32 % of control | T/C [4]: -36 % of control

CC1CN1C(=O)NCCCCCCNC(=O)N1CC1C (stereo unspecified)
T/C (dose: 40.0 mg/kg/injection, schedule: Q04DX003 (sc), vehicle: Klucel (hydroxypropylcellulose) (HPC)): 6 % of control and 23 % of control

Oc1c(Cl)cc(C(c2cc(Cl)c(O)c(Cl)c2)C(c2cc(Cl)c(O)c(Cl)c2)c2cc(Cl)c(O)c(Cl)c2)cc1Cl
T/C [3]: 88 % of control | T/C [5]: 66 % of control | T/C [4]: 55 % of control | T/C [6]: 66 % of control

CCCCCC[C@H]([C@H](C)O)n1cnc2c(N)ncnc21
T/C [7]: 52 % of control | T/C (dose: 200.0 mg/kg/injection, schedule: Q01DX010 (sc), vehicle: Klucel (hydroxypropylcellulose) (HPC)): 34 % of control

ClCC[Se](Cl)(Cl)c1ccccc1
T/C (dose: 12.5 mg/kg/injection, schedule: Q04DX003 (sc), vehicle: saline): 92 % of control | T/C (dose: 25.0 mg/kg/injection, schedule: Q04DX003 (sc), vehicle: saline): 70 % of control | T/C (dose: 50.0 mg/kg/injection, schedule: Q04DX003 (sc), vehicle: saline): 46 % of control

C1CN2CCC1CC2
T/C (dose: 4.69 mg/kg/injection, schedule: Q04DX003 (sc), vehicle: saline with Tween-80): 96 % of control | T/C (dose: 9.38 mg/kg/injection, schedule: Q04DX003 (sc), vehicle: saline with Tween-80): 73 % of control | T/C (dose: 18.75 mg/kg/injection, schedule: Q04DX003 (sc), vehicle: saline with Tween-80): 68 % of control

COc1cc2cc(c1Cl)N(C)C(=O)CC(OC(=O)CC(C)C)C1(C)OC1C(C)C1CC(O)(NC(=O)O1)C(OC)/C=C/C=C(C)C2 (stereo unspecified)
T/C (dose: 12.5 micrograms/kg/injection, schedule: Q01DX010 (sc), vehicle: saline + alcohol): 73 % of control | T/C (dose: 25.0 micrograms/kg/injection, schedule: Q01DX010 (sc), vehicle: saline + alcohol): 59 % of control | T/C (dose: 50.0 micrograms/kg/injection, schedule: Q01DX010 (sc), vehicle: saline + alcohol): 107 % of control

O=C1CN(CN2CCOCC2)C(=O)CN1CN1CCOCC1
T/C (dose: 50.0 mg/kg/injection, schedule: Q01DX010 (sc), vehicle: suspension in saline): 116 % of control | T/C (dose: 200.0 mg/kg/injection, schedule: Q01DX010 (sc), vehicle: suspension in saline): 156 % of control

CN(C)C(=O)SC1=C(c2c(Cl)cccc2Cl)C(=O)c2ccccc21
T/C [3]: 84 % of control | T/C [5]: 106 % of control | T/C [4]: 65 % of control | T/C [6]: 92 % of control

O=C(Nc1ccccc1C(=O)O)c1cc([N+](=O)[O-])cc([N+](=O)[O-])c1
T/C (dose: 50.0 mg/kg/injection, schedule: Q04DX003 (sc), vehicle: saline with Tween-80): 86 % of control | T/C [1]: 86 % of control | T/C [2]: 100 % of control | T/C [8]: 64 % of control

C/C=C/C=C1/OC(C)=C(C(C)=O)C1=O
T/C [1]: 107 % of control | T/C [2]: 97 % of control | T/C [8]: 110 % of control | T/C (dose: 800.0 mg/kg/injection, schedule: Q04DX003 (sc), vehicle: saline with Tween-80): 92 % of control

CCCCCC(O)C1C(=O)OC(C)C(O)/C=C/C=C/C=C/C=C\C=C(\C)C(O)CC(O)CC(O)CC(O)CC(O)CC(O)CC1O (stereo unspecified)
T/C (dose: 150.0 mg/kg/injection, schedule: Q04DX003 (sc), vehicle: distilled water + alcohol): 107 % of control | T/C (dose: 300.0 mg/kg/injection, schedule: Q04DX003 (sc), vehicle: distilled water + alcohol): 117 % of control | T/C (dose: 600.0 mg/kg/injection, schedule: Q04DX003 (sc), vehicle: distilled water + alcohol): 98 % of control | T/C (dose: 1200.0 mg/kg/injection, schedule: Q04DX003 (sc), vehicle: distilled water + alcohol): 105 % of control

Cc1cn(C2CC(O)C(CO)O2)c(=O)[nH]c1=O (stereo unspecified)
T/C (dose: 800.0 mg/kg/injection, schedule: Q04DX003 (sc), vehicle: saline): 94 % of control | T/C (dose: 1600.0 mg/kg/injection, schedule: Q04DX003 (sc), vehicle: saline): 70 % of control | T/C (dose: 3200.0 mg/kg/injection, schedule: Q04DX003 (sc), vehicle: saline): 71 % of control | T/C (dose: 6400.0 mg/kg/injection, schedule: Q04DX003 (sc), vehicle: saline): 61 % of control

Clc1ccc(C2SC=Cc3ccccc32)cc1 (stereo unspecified)
T/C [3]: 64 % of control | T/C [5]: 47 % of control | T/C [4]: 106 % of control

Cn1cnc([N+](=O)[O-])c1S(=O)(=O)NCN1CCOCC1
T/C (dose: 25.0 mg/kg/injection, schedule: Q01DX010 (sc), vehicle: Klucel (hydroxypropylcellulose) (HPC)): 34 % of control | T/C (dose: 50.0 mg/kg/injection, schedule: Q01DX010 (sc), vehicle: Klucel (hydroxypropylcellulose) (HPC)): 67 % of control | T/C [7]: 43 % of control

COC(=O)C(Cl)(Cl)N=Nc1c(Cl)cc(Cl)c(C)c1Cl
T/C (dose: 150.0 mg/kg/injection, schedule: Q04DX003 (sc), vehicle: saline with Tween-80): 210 % of control | T/C (dose: 300.0 mg/kg/injection, schedule: Q04DX003 (sc), vehicle: saline with Tween-80): 196 % of control | T/C (dose: 600.0 mg/kg/injection, schedule: Q04DX003 (sc), vehicle: saline with Tween-80): 237 % of control | T/C (dose: 1200.0 mg/kg/injection, schedule: Q04DX003 (sc), vehicle: saline with Tween-80): 209 % of control

COc1cccc2c1C(=O)c1c(O)c3c(c(O)c1C2=O)C[C@@](O)(C(=O)COC(=O)c1cccnc1)C[C@@H]3OC1CC(N)C(O)C(C)O1 (stereo partly specified)
T/C (dose: 3.0 mg/kg/injection, schedule: Q04DX003 (sc), vehicle: saline): 120 % of control | T/C (dose: 12.0 mg/kg/injection, schedule: Q04DX003 (sc), vehicle: saline): 75 % of control | T/C (dose: 24.0 mg/kg/injection, schedule: Q04DX003 (sc), vehicle: saline): 83 % of control

[CH3][Sn]([CH3])([Cl])[S]CCN
T/C (dose: 18.75 mg/kg/injection, schedule: Q04DX003 (sc), vehicle: saline): 62 % of control | T/C (dose: 37.5 mg/kg/injection, schedule: Q04DX003 (sc), vehicle: saline): 95 % of control | T/C (dose: 75.0 mg/kg/injection, schedule: Q04DX003 (sc), vehicle: saline): 82 % of control

C(=N/NC1=NCCN1)/c1c2ccccc2c(/C=N\NC2=NCCN2)c2ccccc12
T/C (dose: 18.75 mg/kg/injection, schedule: Q04DX003 (sc), vehicle: suspension in saline): 117 % of control | T/C (dose: 75.0 mg/kg/injection, schedule: Q04DX003 (sc), vehicle: suspension in saline): 72 % of control | T/C (dose: 150.0 mg/kg/injection, schedule: Q04DX003 (sc), vehicle: suspension in saline): 49 % of control
